Measurements from US20170320870A1 (Medical Research Council Technology, priority 2009, published 2017).

Tests used:
Assay in all cases: Kinase selectivity: percentage inhibition of each specific kinase at 1 μM inhibitor concentration
Type in all cases: biochemical
[1] = biological target: each specific kinase (kinase selectivity panel, Table 2) (Homo sapiens, UniProt P17612); conditions: PKA
Description: (§1) Values are expressed as percentage inhibition of the each specific kinase at 1 μM inhibitor concentration.

[2] = biological target: each specific kinase (kinase selectivity panel, Table 2) (Homo sapiens, UniProt P31751); conditions: PKBb
Sequence of each specific kinase (kinase selectivity panel, Table 2) (Homo sapiens, UniProt P31751) (P31751 whole entry): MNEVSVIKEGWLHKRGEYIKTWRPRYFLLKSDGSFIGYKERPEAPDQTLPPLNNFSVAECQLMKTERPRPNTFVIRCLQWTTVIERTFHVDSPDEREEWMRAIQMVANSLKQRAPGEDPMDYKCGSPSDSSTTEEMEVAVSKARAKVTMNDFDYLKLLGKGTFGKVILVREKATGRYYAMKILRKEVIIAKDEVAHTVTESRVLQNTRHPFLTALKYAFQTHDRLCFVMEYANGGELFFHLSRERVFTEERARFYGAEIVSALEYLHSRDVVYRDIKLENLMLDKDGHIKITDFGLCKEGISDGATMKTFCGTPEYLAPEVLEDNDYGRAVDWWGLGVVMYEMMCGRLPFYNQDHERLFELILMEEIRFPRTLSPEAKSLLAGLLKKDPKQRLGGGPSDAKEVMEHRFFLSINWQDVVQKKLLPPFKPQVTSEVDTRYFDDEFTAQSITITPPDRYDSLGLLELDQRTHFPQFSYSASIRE
Description: as §1

[3] = biological target: each specific kinase (kinase selectivity panel, Table 2) (Homo sapiens, UniProt Q05513); conditions: PKCz
Sequence of each specific kinase (kinase selectivity panel, Table 2) (Homo sapiens, UniProt Q05513) (Q05513 whole entry): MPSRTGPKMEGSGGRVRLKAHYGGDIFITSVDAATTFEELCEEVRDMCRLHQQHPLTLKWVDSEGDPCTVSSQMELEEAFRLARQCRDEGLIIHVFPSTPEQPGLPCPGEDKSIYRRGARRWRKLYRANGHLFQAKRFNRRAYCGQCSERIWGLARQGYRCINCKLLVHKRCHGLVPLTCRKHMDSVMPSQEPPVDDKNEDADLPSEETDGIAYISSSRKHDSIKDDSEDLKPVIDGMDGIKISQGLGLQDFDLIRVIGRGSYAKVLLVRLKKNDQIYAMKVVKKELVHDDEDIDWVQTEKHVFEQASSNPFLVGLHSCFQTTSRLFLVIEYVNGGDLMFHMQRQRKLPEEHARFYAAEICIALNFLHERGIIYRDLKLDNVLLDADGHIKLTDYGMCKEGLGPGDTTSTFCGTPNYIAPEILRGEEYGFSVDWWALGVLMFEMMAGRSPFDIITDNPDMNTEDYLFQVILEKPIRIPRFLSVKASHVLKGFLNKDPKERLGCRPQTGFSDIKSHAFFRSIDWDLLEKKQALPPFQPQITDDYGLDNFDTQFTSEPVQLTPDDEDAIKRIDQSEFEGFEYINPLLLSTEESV
Description: as §1

[4] = biological target: each specific kinase (kinase selectivity panel, Table 2) (Homo sapiens, UniProt P06213); conditions: IR
Description: as §1

[5] = biological target: each specific kinase (kinase selectivity panel, Table 2) (Homo sapiens, UniProt P43405); conditions: SYK
Description: as §1

[6] = biological target: each specific kinase (kinase selectivity panel, Table 2) (Homo sapiens, UniProt O15530); conditions: PDK1
Sequence of each specific kinase (kinase selectivity panel, Table 2) (Homo sapiens, UniProt O15530) (O15530 whole entry): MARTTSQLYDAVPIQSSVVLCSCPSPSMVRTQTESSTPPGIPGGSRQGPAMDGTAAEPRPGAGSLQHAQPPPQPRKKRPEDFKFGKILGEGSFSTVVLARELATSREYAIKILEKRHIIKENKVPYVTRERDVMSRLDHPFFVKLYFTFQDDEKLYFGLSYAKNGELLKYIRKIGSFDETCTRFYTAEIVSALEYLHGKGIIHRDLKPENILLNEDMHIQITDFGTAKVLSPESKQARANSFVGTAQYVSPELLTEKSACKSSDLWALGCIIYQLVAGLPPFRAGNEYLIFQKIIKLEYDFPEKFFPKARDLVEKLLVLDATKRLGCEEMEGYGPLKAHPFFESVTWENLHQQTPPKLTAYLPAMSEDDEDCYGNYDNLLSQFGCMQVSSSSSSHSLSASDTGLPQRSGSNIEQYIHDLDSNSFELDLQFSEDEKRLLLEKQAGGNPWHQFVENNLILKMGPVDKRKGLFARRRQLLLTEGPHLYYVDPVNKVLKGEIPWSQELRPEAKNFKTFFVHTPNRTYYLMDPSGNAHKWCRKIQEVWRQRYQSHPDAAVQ
Description: as §1

[7] = biological target: each specific kinase (kinase selectivity panel, Table 2) (Homo sapiens, UniProt Q96RR4); conditions: CAMKKb
Description: as §1

[8] = biological target: each specific kinase (kinase selectivity panel, Table 2) (Homo sapiens, UniProt P23443); conditions: S6K1
Sequence of each specific kinase (kinase selectivity panel, Table 2) (Homo sapiens, UniProt P23443) (P23443 whole entry): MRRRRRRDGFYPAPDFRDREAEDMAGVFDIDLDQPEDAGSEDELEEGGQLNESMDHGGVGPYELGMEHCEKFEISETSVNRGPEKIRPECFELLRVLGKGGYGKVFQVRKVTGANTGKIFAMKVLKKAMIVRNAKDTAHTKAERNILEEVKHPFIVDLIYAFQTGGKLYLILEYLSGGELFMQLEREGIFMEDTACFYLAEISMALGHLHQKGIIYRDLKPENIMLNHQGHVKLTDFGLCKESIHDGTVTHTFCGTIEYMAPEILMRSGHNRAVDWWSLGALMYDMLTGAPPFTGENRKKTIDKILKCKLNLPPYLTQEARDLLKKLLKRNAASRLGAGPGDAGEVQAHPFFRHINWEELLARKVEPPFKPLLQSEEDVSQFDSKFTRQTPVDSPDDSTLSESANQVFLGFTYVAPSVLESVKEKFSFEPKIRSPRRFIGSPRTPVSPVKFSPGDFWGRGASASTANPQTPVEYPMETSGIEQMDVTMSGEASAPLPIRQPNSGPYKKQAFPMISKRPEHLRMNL
Description: as §1

[9] = biological target: each specific kinase (kinase selectivity panel, Table 2) (Homo sapiens, UniProt Q96SB4); conditions: SRPK1
Description: as §1

[10] = biological target: each specific kinase (kinase selectivity panel, Table 2) (Homo sapiens, UniProt Q8IWQ3); conditions: BRSK2
Description: as §1

[11] = biological target: each specific kinase (kinase selectivity panel, Table 2) (Homo sapiens, UniProt Q8IW41); conditions: PRAK
Description: as §1

[12] = biological target: each specific kinase (kinase selectivity panel, Table 2) (Homo sapiens, UniProt O14757); conditions: CHK1
Description: as §1

[13] = biological target: each specific kinase (kinase selectivity panel, Table 2) (Homo sapiens, UniProt O75582); conditions: MSK1
Sequence of each specific kinase (kinase selectivity panel, Table 2) (Homo sapiens, UniProt O75582) (O75582 whole entry): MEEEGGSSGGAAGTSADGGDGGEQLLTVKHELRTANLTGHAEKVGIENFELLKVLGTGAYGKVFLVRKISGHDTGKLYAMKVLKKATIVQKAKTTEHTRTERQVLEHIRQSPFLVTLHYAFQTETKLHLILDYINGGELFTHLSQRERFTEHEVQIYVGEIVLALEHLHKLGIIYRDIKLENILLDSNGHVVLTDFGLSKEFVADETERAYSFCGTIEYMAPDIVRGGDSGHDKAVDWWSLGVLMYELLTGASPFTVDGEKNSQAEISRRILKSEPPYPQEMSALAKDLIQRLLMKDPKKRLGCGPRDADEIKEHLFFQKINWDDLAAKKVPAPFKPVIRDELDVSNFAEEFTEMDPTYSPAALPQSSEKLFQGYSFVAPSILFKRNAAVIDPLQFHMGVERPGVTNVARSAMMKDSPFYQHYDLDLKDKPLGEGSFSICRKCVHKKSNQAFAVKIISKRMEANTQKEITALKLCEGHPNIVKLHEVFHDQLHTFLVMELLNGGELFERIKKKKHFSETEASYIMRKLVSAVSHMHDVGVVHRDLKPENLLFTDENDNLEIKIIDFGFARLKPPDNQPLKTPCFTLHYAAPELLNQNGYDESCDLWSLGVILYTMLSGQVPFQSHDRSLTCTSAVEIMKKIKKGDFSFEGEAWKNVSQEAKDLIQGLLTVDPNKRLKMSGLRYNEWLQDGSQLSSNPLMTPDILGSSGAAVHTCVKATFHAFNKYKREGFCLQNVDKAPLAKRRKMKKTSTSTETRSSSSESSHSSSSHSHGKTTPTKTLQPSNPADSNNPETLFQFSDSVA
Description: as §1

[14] = biological target: each specific kinase (kinase selectivity panel, Table 2) (Homo sapiens, UniProt P06239); conditions: Lck
Sequence of each specific kinase (kinase selectivity panel, Table 2) (Homo sapiens, UniProt P06239) (P06239 whole entry): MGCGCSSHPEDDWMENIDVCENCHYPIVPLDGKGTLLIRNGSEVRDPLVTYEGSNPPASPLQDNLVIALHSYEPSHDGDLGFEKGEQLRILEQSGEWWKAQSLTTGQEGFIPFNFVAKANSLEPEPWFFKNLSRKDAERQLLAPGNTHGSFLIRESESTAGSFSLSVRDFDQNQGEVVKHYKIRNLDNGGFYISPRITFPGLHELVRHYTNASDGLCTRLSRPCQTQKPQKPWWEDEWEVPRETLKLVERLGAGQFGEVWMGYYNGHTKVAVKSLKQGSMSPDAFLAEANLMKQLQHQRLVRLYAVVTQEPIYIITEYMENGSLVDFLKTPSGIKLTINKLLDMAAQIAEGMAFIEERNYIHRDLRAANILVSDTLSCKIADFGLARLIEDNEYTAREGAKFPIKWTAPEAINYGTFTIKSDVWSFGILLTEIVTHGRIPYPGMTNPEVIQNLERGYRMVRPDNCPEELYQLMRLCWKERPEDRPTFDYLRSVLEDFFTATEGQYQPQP
Description: as §1

[15] = biological target: each specific kinase (kinase selectivity panel, Table 2) (Homo sapiens, UniProt P11309); conditions: PIM1
Description: as §1

[16] = biological target: each specific kinase (kinase selectivity panel, Table 2) (Homo sapiens, UniProt O96013); conditions: PAK4
Description: as §1

[17] = biological target: each specific kinase (kinase selectivity panel, Table 2) (Homo sapiens, UniProt Q9UHD2); conditions: TBK1
Sequence of each specific kinase (kinase selectivity panel, Table 2) (Homo sapiens, UniProt Q9UHD2) (Q9UHD2 whole entry): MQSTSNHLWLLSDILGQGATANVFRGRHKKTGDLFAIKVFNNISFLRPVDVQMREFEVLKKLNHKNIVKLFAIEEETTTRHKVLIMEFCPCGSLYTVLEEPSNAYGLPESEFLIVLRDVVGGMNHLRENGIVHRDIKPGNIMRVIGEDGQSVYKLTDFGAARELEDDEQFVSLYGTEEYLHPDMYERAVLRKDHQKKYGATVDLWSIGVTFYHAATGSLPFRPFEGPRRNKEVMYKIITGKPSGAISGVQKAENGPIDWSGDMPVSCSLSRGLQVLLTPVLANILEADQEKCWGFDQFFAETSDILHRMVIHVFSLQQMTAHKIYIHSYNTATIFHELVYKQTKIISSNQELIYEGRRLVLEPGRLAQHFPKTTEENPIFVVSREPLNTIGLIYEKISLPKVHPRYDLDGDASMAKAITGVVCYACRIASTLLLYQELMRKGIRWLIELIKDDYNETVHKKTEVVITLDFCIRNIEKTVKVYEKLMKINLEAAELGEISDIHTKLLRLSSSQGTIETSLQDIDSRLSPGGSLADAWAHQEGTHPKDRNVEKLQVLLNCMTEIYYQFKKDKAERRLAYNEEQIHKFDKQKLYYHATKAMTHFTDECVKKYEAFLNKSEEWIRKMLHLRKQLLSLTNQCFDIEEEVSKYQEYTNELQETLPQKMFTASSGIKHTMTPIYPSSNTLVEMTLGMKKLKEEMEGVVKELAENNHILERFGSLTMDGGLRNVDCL
Description: as §1

[18] = biological target: each specific kinase (kinase selectivity panel, Table 2) (Homo sapiens, UniProt O14920); conditions: IKKb
Sequence of each specific kinase (kinase selectivity panel, Table 2) (Homo sapiens, UniProt O14920) (O14920 whole entry): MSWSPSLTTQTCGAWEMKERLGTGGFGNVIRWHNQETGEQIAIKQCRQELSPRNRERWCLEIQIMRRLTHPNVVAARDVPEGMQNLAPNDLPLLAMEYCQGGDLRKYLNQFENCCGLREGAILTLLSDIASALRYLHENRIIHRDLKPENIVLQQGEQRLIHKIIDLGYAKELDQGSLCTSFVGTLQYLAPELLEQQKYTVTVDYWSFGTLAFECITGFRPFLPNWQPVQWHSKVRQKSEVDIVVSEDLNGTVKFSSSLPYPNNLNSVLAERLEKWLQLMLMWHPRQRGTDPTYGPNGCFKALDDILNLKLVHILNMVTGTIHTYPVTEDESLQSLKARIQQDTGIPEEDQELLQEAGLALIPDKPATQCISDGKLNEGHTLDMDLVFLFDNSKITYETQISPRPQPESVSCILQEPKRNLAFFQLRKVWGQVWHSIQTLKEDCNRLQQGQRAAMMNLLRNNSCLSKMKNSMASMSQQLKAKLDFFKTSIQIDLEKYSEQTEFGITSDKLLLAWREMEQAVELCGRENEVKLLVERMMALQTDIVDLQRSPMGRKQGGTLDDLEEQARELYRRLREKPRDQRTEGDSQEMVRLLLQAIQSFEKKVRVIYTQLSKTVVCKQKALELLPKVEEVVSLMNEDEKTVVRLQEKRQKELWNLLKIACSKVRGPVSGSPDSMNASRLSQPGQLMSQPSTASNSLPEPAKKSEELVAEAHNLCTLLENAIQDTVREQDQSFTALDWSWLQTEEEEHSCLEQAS
Description: as §1

| Structure (SMILES) | percentage inhibition of PKA [1] [percentage] | percentage inhibition of PKBb [2] [percentage] | percentage inhibition of PKCz [3] [percentage] | percentage inhibition of IR [4] [percentage] | percentage inhibition of SYK [5] [percentage] | percentage inhibition of PDK1 [6] [percentage] | percentage inhibition of CAMKKb [7] [percentage] | percentage inhibition of S6K1 [8] [percentage] | percentage inhibition of SRPK1 [9] [percentage] | percentage inhibition of BRSK2 [10] [percentage] | percentage inhibition of PRAK [11] [percentage] | percentage inhibition of CHK1 [12] [percentage] | percentage inhibition of MSK1 [13] [percentage] | percentage inhibition of Lck [14] [percentage] | percentage inhibition of PIM1 [15] [percentage] | percentage inhibition of PAK4 [16] [percentage] | percentage inhibition of TBK1 [17] [percentage] | percentage inhibition of IKKb [18] [percentage] |
| --- | --- | --- | --- | --- | --- | --- | --- | --- | --- | --- | --- | --- | --- | --- | --- | --- | --- | --- |
| O=C(CCc1n[nH]c2ccnc(NC3CCCCC3)c12)N1CCC[C@H](c2ccccc2)C1 [Example 172, 3-(4-Cyclohexylamino-1H-pyrazolo[4,3-c]pyridin-3-yl)-1-((R)-3-phenyl-piperidin-1-yl)-propan-1-one] | 5 | 0 | 10 | 4 | 4 | 0 | 21 | 14 | 17 | 0 | 0 | 0 | 1 | 25 | 0 | 24 | 14 | 22 |
| CC[C@H](C)Oc1nccc2[nH]nc(C)c12 [Example 121, 4-((S)-sec-Butoxy)-3-methyl-1H-pyrazolo[4,3-c]pyridine] | 26 | 3 | 0 | 8 | 0 | 13 | 12 | 0 | 21 | 13 | 0 | 10 | 48 | 0 | 15 | 26 | 6 | 15 |
